The values below come from US10154983B2, “Neurodegenerative disorders and muscle diseases implicating PUFAs” (Retrotope, Inc., priority 2011, dated 2018).

The structures appear in SMILES notation.

Series [1] is described as follows: Kinetics of oxygen consumption during oxidation in chlorobenzene initiated by AMVN. It is filed as physicochemical. Here is the method: FIG. 7. Kinetics of O2 consumption accompanied the oxidation of 0.71 M LA (plots 1 and 2) and 0.71 M D2-LA (plot 3) in chlorobenzene initiated by 40 mM AMVN at 37° C. Plot 2—0.23 mM HPMC was added to 0.71 M LA.
The kinetics of oxygen consumption during the oxidation of LA and D2-LA was studied with a glass capillary microvolumeter (FIG. 7). The rate of oxidation, ROX, was measured as a slope of [O2] traces. The rate of initiation, RIN, was determined by the inhibitor method with HPMC (“6-hydroxy-2,2,5,7,8-pentamethylbenzochroman”) as a reference inhibitor. RIN was calculated from the induction period of inhibited oxidation, tIND: RIN=2·[HPMC]/tIND. […] When the process was inhibited by 0.23 mM chain-breaking antioxidant HPMC, the duration of the induction period, tIND, was about 48 min, with the RIN value of around 0.16×10^−6 M/s. […] The latter precludes a direct determination of RIN. […] An estimated kinetic isotope effect (“KIE”), from comparison of ROX for LA and D2-LA, was around 6.1×10^−6/0.18×10^−6≈35. A similar KIE was determined during the oxidation of LA and 11,11-d2-LA in Triton X-100 aqueous micelles (data not shown). For comparative purposes, the theoretical KIE is 6.9 at 25° C. See Carpenter, “Determination of Organic Reaction Mechanisms” (John Wiley & Sons, 1984), p. 89.

Series [2] in a line: Kinetics of the oxidation of mixtures of D2-LA and LA. It counts as physicochemical. The conditions noted are these: data not shown. Here is the method:
FIG. 8. Dependence of the rate of oxidation of the mixture of LA and D2-LA in chlorobenzene solution on mixture composition. Conditions: [LA]+[11,11-d2-LA]=0.775 M; [AMVN]=0.0217 M; 37° C. RIN=(1.10±0.08)×10^−7 M/sec.
To simulate the likely in vivo conditions, the kinetics of the oxidation of the mixtures of D2-LA and LA were studied (FIG. 8). In the experiments, the concentration of LA plus 11,11-d2-LA was 0.775 M; the concentration of AMVN was 0.0217 M; and the reactions were carried out at 37° C. The results afforded an RIN of 1.10±0.08×10^−7 M/sec.

For series [3], the system named is coq null mutants. Particulars: for viability of coq null mutants: 200 μM fatty acid, plate dilution assay. On the procedure:
FIG. 3. […] Yeast coq3, coq7 and coq9 null mutants were prepared in the W303 yeast genetic background (WT). Yeast strains were grown in YPD medium (1% Bacto-yeast extract, 2% Bacto-peptone, 2% dextrose) and harvested while in log phase growth (OD600 nm=0.1-1.0). Cells were washed twice with sterile water and resuspended in phosphate buffer (0.10 M sodium phosphate, pH 6.2, 0.2% dextrose) to an OD600 nm=0.2. Samples were removed and 1:5 serial dilutions starting at 0.20 OD/ml were plated on YPD plate medium, to provide a zero time untreated control (shown in top left panel). The designated fatty acids were added to 200 μM final concentration to 20 ml of yeast in phosphate buffer. At 2 h, 4 h, and 16 h samples were removed, 1:5 serial dilutions prepared, and spotted onto YPD plate medium. Pictures were taken after 2 days of growth at 30° C.
FIG. 4. […] The fatty acid sensitive assay was performed as described in FIG. 3, except that 100 μl aliquots were removed at 1, 2, and 4 h and, following dilution, spread onto YPD plates. Pictures were taken after 2 to 2.5 days, and the number of colonies counted.
Q-less yeast (coq mutants) provide an ideal system to assess in vivo autoxidation of fatty acids. Coenzyme Q (ubiquinone or Q) serves as a small lipophilic antioxidant as well as an electron shuttle in the respiratory chain of the mitochondrial inner membrane. Ten S. cerevisiae genes (COQ1-COQ10) are required for coenzyme Q biosynthesis and function, and the deletion of any results in respiratory deficiency (Tran U C, Clarke C F. Mitochondrion 2007; 7S,S62).
A plate dilution assay can be used to assess PUFA sensitivity. This assay can be performed by spotting serial five-fold dilutions of aliquots onto YPD plate media (FIG. 3). The sensitivity of the different strains can be observed by visual inspection of the density of cells in each spot.

The test system of series [4] is wild-type (strain W303-1B) cells. Particulars: four hour treatment; cited from earlier work.
Another series concerns Wild-type yeast. The conditions noted are these: 200 μM fatty acid, 4 h incubation.
Series [5] deals with coq null mutants. The conditions noted are these: four hour treatment; cited from earlier work.

Protocol for Wild-type yeast: Uptake of exogenously supplied fatty acids by yeast. WT (W303) yeast were harvested at log phase and incubated in the presence of 200 μM of the designated fatty acid for either 0 or 4 h.
Wild-type yeast were harvested during log phase growth and incubated in the presence of exogenously added fatty acid (for 0 or 4 h) in the presence of phosphate buffer plus 0.20% dextrose, as described for the fatty acid sensitivity assay. Cells were harvested, washed twice with 10 ml sterile water, and the yeast cell pellets were then processed by alkaline methanolysis as described above. The fatty acids are detected as methylesters (FAMEs) following GC-MS with C17:0 added as an internal standard (FIG. 6). The amounts of 18:3 and D4 detected after 4 h incubation were extrapolated from the calibration curve.

For `[2H]C([2H])(/C=C\CCCCC)/C=C\CCCCCCCC(=O)O` [D2-LA, 11,11-Dideutero-cis,cis-octadeca-9,12-dienoic acid], in series [1], the “effect of addition of HPMC” value was “did not result in the decrease in ROX and the appearance of any detectable induction period”; the “length of the kinetic chain v=ROX/RIN” value is “≈ 1.1”. Besides, in series [2], the “effect on oxidation of mixture with non-deuterated methyl linoleate” value is listed as “qualititatively similar effect”.

On to `[2H]C([2H])(/C=C\C/C=C\CC)C/C=C\CCCCCCC(=O)O` [11,11-D2-linolenic acid, 11,11-Dideutero-cis,cis,cis-octadeca-8,12,15-trienoic acid], for which the “protection in the yeast model” value in the series with coq null mutants [3] was “comparable protection”.

With `CCCCC/C=C\C/C=C\CCCCCCCC(=O)O` [LA, (9Z,12Z)-9,12-Octadecadienoic acid, reference compound], the “length of the kinetic chain v=ROX/RIN” value in series [1] came out at 38±3.

Consider `CC/C=C\C/C=C\C/C=C\CCCCCCCC(=O)O` [linolenic acid, (9Z,12Z,15Z)-9,12,15-Octadecatrienoic acid, reference compound], for which the “wild-type cells remaining viable” value in series [4] is on record as 70%. The incorporation by yeast entry in the series with Wild-type yeast is reported as “avidly incorporate”. Besides, the “viability of coq null mutants” value with coq null mutants [3] was “dramatic loss of viability”. In addition, the “Q-less (coq2, coq3, and coq5) yeast mutants viable following treatment” value in the series on coq null mutants [5] is listed as “Less than 1%”.

Regarding `[2H]C([2H])(/C=C\CC)/C=C\C([2H])([2H])/C=C\CCCCCCCC(=O)O` [D4-linolenic acid, 11,11,14,14-Tetradeutero-cis,cis,cis-octadeca-8,12,15-trienoic acid], the incorporation by yeast entry with Wild-type yeast is “avidly incorporate”. In the series with coq null mutants [3], the “viability of coq null mutants” value is “not killed”. For the same molecule, the “viability of treated cells compared with oleic” value in the series on coq null mutants [3] (quantitative colony counting) is recorded as “similar”.

On to `[2H]C([2H])(/C=C\CC)/C=C\CC/C=C\CCCCCCC(=O)O` [14,14-D2-linolenic acid, 14,14-Dideutero-cis,cis,cis-octadeca-8,12,15-trienoic acid], for which, in the series on coq null mutants [3], the “protection in the yeast model” value is “comparable protection”.
